Values quoted from earlier work in patent US20120252687A1, “Scoring Function Penalizing Compounds Which Desolvate Charged Protein Side Chains Structure” (priority 2011, published 2012).

How the values were obtained:
Cdk2 = Cdk2 (Homo sapiens, UniProt P24941); settings: PDB complex
Jnk = Jnk (Homo sapiens, UniProt P53779); settings: PDB complex
Jnk, sequence (P53779 whole entry): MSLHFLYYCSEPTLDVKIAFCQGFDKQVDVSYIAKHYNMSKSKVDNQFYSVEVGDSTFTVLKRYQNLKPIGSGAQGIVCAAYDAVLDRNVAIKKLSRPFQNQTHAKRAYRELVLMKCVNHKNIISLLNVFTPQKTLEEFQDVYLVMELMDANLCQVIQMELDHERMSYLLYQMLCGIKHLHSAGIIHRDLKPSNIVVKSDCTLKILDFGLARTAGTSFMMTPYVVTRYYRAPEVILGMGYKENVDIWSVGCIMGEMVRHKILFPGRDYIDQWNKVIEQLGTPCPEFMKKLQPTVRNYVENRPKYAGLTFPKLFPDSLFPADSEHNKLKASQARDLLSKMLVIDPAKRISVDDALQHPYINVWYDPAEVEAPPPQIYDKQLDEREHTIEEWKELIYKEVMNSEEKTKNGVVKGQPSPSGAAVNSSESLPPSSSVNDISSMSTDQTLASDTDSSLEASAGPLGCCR

Row | SMILES | dG (experimental free energy of binding) (Cdk2) | dG (experimental free energy of binding) (Jnk)
1 | NS(=O)(=O)c1ccc(Nc2cn3cc(C(=O)c4c(Cl)cccc4Cl)ccc3n2)cc1 [Cdk2_1ykr] | −8.5 | –
2 | N#Cc1c(NC(=O)c2cccc3ccccc23)sc2c1CCN(C(=O)CCN1CCCCC1)C2 [Jnk_2o0u] | – | −7.5
